From patent US20230233555A1 (AbbVie Inc., priority 2022, published 2023)

Key:
[1] = system: CYP1A2, CYP3A, CYP2D6, CYP2C9, CYP2C19, CYP2B6; experiment: Drug interaction studies: effect of upadacitinib on co-administered drugs / in vivo markers of CYP activity (cocktail study); conditions: for AUC Ratio (90% CI) of co-administered drug, with upadacitinib vs alone / Cmax Ratio (90% CI) of co-administered drug, with upadacitinib vs alone: extended-release
[2] = system: patients with moderately to severely active rheumatoid arthritis, naive to MTX; experiment: Trial RA-I (NCT02706873); format: in vivo, human; conditions: for CRP / Number of swollen joints (0-66) / Number of tender joints (0-68) / Pain / Patient global assessment / Physician global assessment: mean; for Pain / Patient global assessment / Physician global assessment: visual analog scale 0 = best, 100 = worst
Protocol: The primary endpoint was the proportion of patients who achieved an ACR50 response at Week 12. Key secondary endpoints included disease activity score (DAS28-CRP) ≤3.2 at Week 12, DAS28-CRP <2.6 at Week 24, change from baseline in HAQ-DI at Week 12, and change from baseline in van der Heijde-modified total Sharp Score (mTSS) at Week 24.
Inhibition of progression of structural joint damage was assessed using the modified Total Sharp Score (mTSS) and its components, the erosion score and joint space narrowing score, at Week 26 in Trial RA-IV and Week 24 in Trial RA-I. The proportion of patients with no radiographic progression (mTSS change from baseline […]) was also assessed.

[3] = system: patients with rheumatoid arthritis; experiment: Rheumatoid arthritis Phase 3 trials, integrated datasets (RA-I to RA-V)
Source text: Exposure adjusted incidence rates were adjusted by trial for all the adverse events reported in this section.
Patients 18 years of age and older were eligible to participate. The presence of at least 6 tender and 6 swollen joints and evidence of systemic inflammation based on elevation of hsCRP was required at baseline.

[4] = system: patients with moderately to severely active rheumatoid arthritis, inadequate response to MTX; experiment: Trial RA-II (NCT02706951); format: in vivo, human; conditions: for CRP / Number of swollen joints (0-66) / Number of tender joints (0-68) / Pain / Patient global assessment / Physician global assessment: Trial RA-II, MTX-IR, monotherapy, mean; for Pain / Patient global assessment / Physician global assessment: visual analog scale 0 = best, 100 = worst; for CRP, mean / Number of swollen joints (0-66), mean / Number of tender joints (0-68), mean / Pain (visual analog scale 0-100), mean / Patient global assessment (visual analog scale 0-100), mean / Physician global assessment (visual analog scale 0-100), mean: RA-II
Source text: The primary endpoint was the proportion of patients who achieved an ACR20 response at Week 14. Key secondary endpoints included DAS28-CRP ≤3.2, DAS28-CRP <2.6, and change from baseline in HAQ-DI at Week 14.

[5] = Baseline, Trial RA-I, MTX-naïve, monotherapy, RINVOQ 15 mg or MTX
[6] = RA-I MTX-naive monotherapy, Week 12, RINVOQ 15 mg or MTX
[7] = RA-I MTX-naive monotherapy, Week 24, RINVOQ 15 mg or MTX
[8] = RA-I, Baseline, RINVOQ 15 mg or MTX
[9] = RA-I, Week 12, RINVOQ 15 mg or MTX
[10] = Week 12 (primary efficacy timepoint), Trial RA-I, MTX-naïve, monotherapy, RINVOQ 15 mg or MTX
[11] = MTX-controlled RA-I and RA-II, 12/14 weeks, 15 mg monotherapy (or MTX monotherapy arm)
[12] = MTX-controlled trials, up to 12/14 weeks, 15 mg (or MTX arm)
[13] = RA-II MTX-IR monotherapy, Week 14, RINVOQ 15 mg or MTX
[14] = Week 14 (primary efficacy timepoint), RINVOQ 15 mg or MTX

COc1ccc2c(c1)[C@]13CCCC[C@@H]1[C@H](C2)N(C)CC3 [Dextromethorphan]
AUC Ratio (90% CI) of co-administered drug, with upadacitinib vs alone ([1]; upadacitinib 30 mg QD): 1.07 (0.95-1.22)
Cmax Ratio (90% CI) of co-administered drug, with upadacitinib vs alone ([1]; upadacitinib 30 mg QD): 1.09 (0.98-1.21)
AUC Ratio (90% CI) of co-administered drug, with upadacitinib vs alone ([1]; upadacitinib 45 mg QD): 1.35 (1.18-1.54)
Cmax Ratio (90% CI) of co-administered drug, with upadacitinib vs alone ([1]; upadacitinib 45 mg QD): 1.30 (1.13-1.50)

CN(Cc1cnc2nc(N)nc(N)c2n1)c1ccc(C(=O)N[C@@H](CCC(=O)O)C(=O)O)cc1 [MTX, methotrexate]
mTSS, Mean (SD) [2, 5]: 13.3 (31)
CRP [2, 5]: 21.2 mg/L
Number of swollen joints (0-66) [2, 5]: 17
Number of tender joints (0-68) [2, 5]: 26
Pain [2, 5]: 66
Patient global assessment [2, 5]: 66
Physician global assessment [2, 5]: 69
ACR20 response, patients [2, 6]: 54%
ACR50 response, patients [2, 6]: 28%
ACR70 response, patients [2, 6]: 14%
DAS28-CRP <2.6, patients (proportion of responders) [2, 6]: 14%
ACR20 response, patients [2, 7]: 59%
ACR50 response, patients [2, 7]: 33%
ACR70 response, patients [2, 7]: 18%
DAS28-CRP <2.6, patients [2, 7]: 18%
mTSS, Mean (SD) ([2]; RA-I monotherapy, Baseline, RINVOQ 15 mg or MTX): 13.3 (31)
mTSS, mean change from baseline (SD) ([2]; RA-I monotherapy, Week 24, RINVOQ 15 mg or MTX): 0.67 (2.8)
Venous thrombosis, number of patients ([2]; RA-I through Week 24, 15 mg (or MTX arm)): 1 patients
CRP, mean [2, 8]: 21.2 mg/L
Number of swollen joints (0-66), mean [2, 8]: 17
Number of tender joints (0-68), mean [2, 8]: 26
Pain (visual analog scale 0-100), mean [2, 8]: 66
Patient global assessment (visual analog scale 0-100), mean [2, 8]: 66
Physician global assessment (visual analog scale 0-100), mean [2, 8]: 69
CRP, mean [2, 9]: 10.9 mg/L
Number of swollen joints (0-66), mean [2, 9]: 6
Number of tender joints (0-68), mean [2, 9]: 13
Of DAS28-CRP <2.6 responders, proportion with 0 active joints [2, 9]: 51%
Of DAS28-CRP <2.6 responders, proportion with 1 active joint [2, 9]: 35%
Of DAS28-CRP <2.6 responders, proportion with 2 active joints [2, 9]: 9%
Of DAS28-CRP <2.6 responders, proportion with 3 or more active joints [2, 9]: 5%
Pain (visual analog scale 0-100), mean [2, 9]: 41
Patient global assessment (visual analog scale 0-100), mean [2, 9]: 42
Physician global assessment (visual analog scale 0-100), mean [2, 9]: 32
Patients with no radiographic progression ([2]; RA-I, Week 24, RINVOQ 15 mg monotherapy or MTX monotherapy): 78%
CRP [2, 10]: 10.9 mg/L
Number of swollen joints (0-66) [2, 10]: 6
Number of tender joints (0-68) [2, 10]: 13
Pain [2, 10]: 41
Patient global assessment [2, 10]: 42
Physician global assessment [2, 10]: 32
mTSS, mean change from baseline (SD) ([2]; Week 24, Trial RA-I, MTX-naïve, monotherapy, RINVOQ 15 mg or MTX): 0.67 (2.8)
Infections, number of patients [3, 11]: 127 patients
Infections, rate [3, 11]: 119.5 per 100 patient-years
Malignancies excluding NMSC, number of patients [3, 11]: 1 patients
Malignancies excluding NMSC, rate [3, 11]: 0.8 per 100 patient-years
Opportunistic infections (excluding tuberculosis), number of patients [3, 11]: 1 patients
Serious infections, number of patients [3, 11]: 2 patients
Serious infections, rate [3, 11]: 1.6 per 100 patient-years
Opportunistic infections (excluding tuberculosis), rate ([3]; MTX-controlled RA-I and RA-II, 12/14 weeks, MTX monotherapy arm): 0.8 per 100 patient-years
ALT elevations ≥3×ULN in at least one measurement, patients [3, 12]: 1.9%
AST elevations ≥3×ULN in at least one measurement, patients [3, 12]: 0.9%
Active tuberculosis cases ([3]; RA MTX-controlled period, 15 mg monotherapy (or MTX monotherapy arm)): no active cases
Gastrointestinal perforations ([3]; RA MTX-controlled trials, 12/14 weeks, 15 mg (or MTX arm)): no cases
CRP ([4]; Baseline, RINVOQ 15 mg or MTX): 14.5 mg/L
Number of swollen joints (0-66) ([4]; Baseline, RINVOQ 15 mg or MTX): 17
Number of tender joints (0-68) ([4]; Baseline, RINVOQ 15 mg or MTX): 25
Pain ([4]; Baseline, RINVOQ 15 mg or MTX): 63
Patient global assessment ([4]; Baseline, RINVOQ 15 mg or MTX): 60
Physician global assessment ([4]; Baseline, RINVOQ 15 mg or MTX): 62
ACR20 response, patients [4, 13]: 41%
ACR50 response, patients [4, 13]: 15%
ACR70 response, patients [4, 13]: 3%
DAS28-CRP <2.6, patients [4, 13]: 8%
Venous thrombosis, number of patients ([4]; RA-II through Week 14, 15 mg monotherapy (or MTX monotherapy arm)): 0 patients
CRP, mean ([4]; Baseline, RINVOQ 15 mg or MTX): 14.5 mg/L
Number of swollen joints (0-66), mean ([4]; Baseline, RINVOQ 15 mg or MTX): 17
Number of tender joints (0-68), mean ([4]; Baseline, RINVOQ 15 mg or MTX): 25
Pain (visual analog scale 0-100), mean ([4]; Baseline, RINVOQ 15 mg or MTX): 63
Patient global assessment (visual analog scale 0-100), mean ([4]; Baseline, RINVOQ 15 mg or MTX): 60
Physician global assessment (visual analog scale 0-100), mean ([4]; Baseline, RINVOQ 15 mg or MTX): 62
CRP, mean ([4]; Week 14, RINVOQ 15 mg or MTX): 12.8 mg/L
Number of swollen joints (0-66), mean ([4]; Week 14, RINVOQ 15 mg or MTX): 9
Number of tender joints (0-68), mean ([4]; Week 14, RINVOQ 15 mg or MTX): 15
Pain (visual analog scale 0-100), mean ([4]; Week 14, RINVOQ 15 mg or MTX): 49
Patient global assessment (visual analog scale 0-100), mean ([4]; Week 14, RINVOQ 15 mg or MTX): 48
Physician global assessment (visual analog scale 0-100), mean ([4]; Week 14, RINVOQ 15 mg or MTX): 37
CRP [4, 14]: 12.8 mg/L
Number of swollen joints (0-66) [4, 14]: 9
Number of tender joints (0-68) [4, 14]: 15
Pain [4, 14]: 49
Patient global assessment [4, 14]: 48
Physician global assessment [4, 14]: 37

Cc1ncc2n1-c1ccc(Cl)cc1C(c1ccccc1F)=NC2 [Midazolam]
Decrease in exposure of oral midazolam (sensitive CYP3A4 substrate) ([1]; repeated doses of upadacitinib 30 mg): 26%
AUC Ratio (90% CI) of co-administered drug, with upadacitinib vs alone ([1]; upadacitinib 30 mg QD): 0.74 (0.68-0.80)
Cmax Ratio (90% CI) of co-administered drug, with upadacitinib vs alone ([1]; upadacitinib 30 mg QD): 0.74 (0.68-0.80)
AUC Ratio (90% CI) of co-administered drug, with upadacitinib vs alone ([1]; upadacitinib 45 mg QD): 0.76 (0.69-0.83)
Cmax Ratio (90% CI) of co-administered drug, with upadacitinib vs alone ([1]; upadacitinib 45 mg QD): 0.75 (0.69-0.83)
